The values that follow come from patent US20110135634A1, “METHODS OF INHIBITING INFECTION BY DIVERSE SUBTYPES OF DRUG-RESISTANT HIV-1” (priority 2007, published 2011).

Read-outs that look alike come from different tables or passages of the source.

As a reminder, the IC90 is the concentration needed for an effect of 90%. One may read the IC50 as the concentration that gives 50% inhibition.

Assay [1] relates to reporter viruses pseudotyped with HIV-1JR-FL envelope (U87-CD4-CCR5 cells). The assay is described as follows: microbe, parasite or virus in culture. Format: cell-based. Conditions: for IC90: HIV-1 envelope JRFL, 1st inhibitor alone.
Assay [2] deals with HIV-1 Env-mediated fusion (HeLa-EnvJRFL and CEM NKR-CCR5 cells). The assay can be described thus: RET cell-cell fusion assay, combination testing (Part II, Example 1).
Procedure: Serial dilutions of small molecules were conducted in DMSO. Subsequent dilutions were conducted in medium to achieve a fmal DMSO concentration in the assay of 0.5%. Peptides and mAbs were diluted in PBS in the absence of DMSO.
Briefly, fluorescein octadecyl ester (F18; Molecular Probes, Eugene, Oreg.; 5 mg/ml in ethanol), was diluted 1:800 in DMEM labeling medium (DMEM; Invitrogen, Carlsbad, Calif.) with 10% fetal bovine serum (FBS; HyClone, Logan, Utah) and adjusted to an A506 of 0.34±10%. […] Both dyes were further diluted 2-fold by addition to cells in T75-cm^2 flasks. HeLa-EnvJRFL and CEM NKR-CCR5 cells were incubated overnight in F18- and R18-containing culture medium, respectively. The following day, medium from HeLa-EnvJRFL cells was removed and 10 ml of 0.5 mM EDTA was added and incubated at 37° C. for 5 min. EDTA was removed and the flask was returned to the incubator for another 5 min followed by striking of the flask to dislodge cells. […] Suspension CEM NKR-CCR5 cells were added directly to a separate 50-ml conical centrifuge tube. […] Ten μl of each cell type (15,000 cells) were seeded into wells of a 384-well plate. Inhibitor compounds were added immediately thereafter to bring the final well volume to 40 μl, and the plates were incubated for 4 h at 37° C. Compounds were tested individually and in combination at a fixed molar ratio or mass ratio over a range of serial dilutions.
The “% RET” was calculated according to the following formula after subtraction of background (blank) readings:
The “% Inhibition” was calculated according to the following formula: […]
IC50 values were generated for all combinations as described above. Combination Index (CI) and Dose Reduction (DR) values were calculated according to the following formulas:
Combinations with CI<1 are determined to be synergistic, whereas combinations with CI>1 are determined to be antagonistic. […]
In this assay, effector cells are labeled with the F18 dye and target cells with the R18 dye. […] Drug susceptibility is measured by adding serial concentrations of drugs to target cells prior to addition of effector cells.
The test system of assay [3] is reporter viruses pseudotyped with HIV-1SF162 envelope (U87-CD4-CCR5 cells). The assay is described as follows: HIV-1 pseudovirus assay, SF162 envelope. It is filed as cell-based. The text has this:
A self-inactivating (SIN) vector was derived from the pNL4-3ΔEnv-luciferase vector (Dragic et al. 1996) by deleting 507 basepairs in the U3 region of the 3′ long terminal repeat (LTR) so as to remove the TATA box and transcription factor binding sites. The human cytomegalovirus promoter was inserted upstream of the luciferase (luc) gene to enable expression of luciferase following integration.
Reporter viruses pseudotyped with HIV-1JR-FL or HIV-1SF162 envelopes were generated by cotransfection of 293T cells with the SIN vector and the appropriate pcDNA env-expressing vector as previously described (Dragic et al. 1996). […] Cultures were incubated for 72 h at 37° C. in DMEM containing 10% fetal bovine serum, […] puromycin, 0.3 mg/mL geneticin, antibiotics, and 0.5% DMSO. Luciferase activity (relative light units or RLU) was measured using. BrightGlo reagent (Promega, Madison, Wis.) according to the manufacturer's instructions.
Experimental design and data analysis were based on the combination index (CI) method (Chou et al. 1991; Chou et al. 1984). […] The mutually exclusive CI formula was used for combinations of CCR5 inhibitors, while the mutually non-exclusive formula was utilized for combinations of inhibitors to distinct targets (Chou et al. 1991). Each test was conducted 4-12 times. Synergy, additivity and antagonism are indicated by CI<1, CI=1 and CI>1, respectively.

For the next assay, the system named is HIV-1. Conditions: dose-dependent, treatment period of 10-14 days; cited from earlier work.
Assay [4] concerns the target CCR5 (CC-chemokine receptor 5) (human) (UniProt P51681). The assay is described as follows: cell-based or functional assay.
Assay [5] addresses HIV-1 SF162 gp120 (HIV-1 strain SF162) (UniProt P19550). The assay can be described thus: cell-based or functional assay.
Assay [6] concerns the target HIV-1 JR-FL gp120 (HIV-1 strain JR-FL). The assay is described as follows: cell-based or functional assay.
Assay [7] concerns primary R5 HIV-1 isolates JR-FL and Case C 1/85 (CC1/85). The assay can be described thus: In vitro resistance selection and susceptibility testing on PBMC. Format: cell-based. Particulars: p24 ELISA. As for the experimental part: For susceptibility testing, viruses were cultured in vitro on stimulated PBMC. In the presence and absence of serially diluted drug, and the extent of viral replication was determined by p24 ELISA.

In assay [8] the target is T1, CCR5 on CEM.NKR-CCR5 cells (Homo sapiens, UniProt P51681).
T1 construct: host or cells: CEM.NKR-CCR5 (transduced human T cell leukemia line)
The assay can be described thus: Competition binding: inhibition of PRO 140-PE binding. Particulars: CEM.NKR-CCR5 cells, flow cytometry. The method, then: Azide was added to block CCR5 internalization during the assay.

A further assay has as its target CD4 (human) (UniProt P01730). The assay is described as follows: cell-based or functional assay.
Where [9] appears, read: Human immunodeficiency virus 1, U87/CD4/CCR5.

T1 sequence (P51681 whole entry): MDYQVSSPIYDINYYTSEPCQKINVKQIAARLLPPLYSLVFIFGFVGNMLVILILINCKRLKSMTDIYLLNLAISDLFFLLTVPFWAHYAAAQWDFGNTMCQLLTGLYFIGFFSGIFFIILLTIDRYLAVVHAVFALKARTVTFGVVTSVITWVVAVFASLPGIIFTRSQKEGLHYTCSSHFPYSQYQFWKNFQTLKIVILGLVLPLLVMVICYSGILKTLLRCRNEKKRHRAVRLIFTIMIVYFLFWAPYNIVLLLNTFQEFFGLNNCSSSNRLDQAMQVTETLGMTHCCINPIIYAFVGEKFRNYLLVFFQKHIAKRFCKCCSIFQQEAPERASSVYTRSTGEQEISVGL

Take `Cc1nnc(C(C)C)n1C1CC2CCC(C1)N2CC[C@H](NC(=O)C1CCC(F)(F)CC1)c1ccccc1` (stereo partly shown) [UK-427,857, reference compound]: the figures for the IC90 in [1] and in assay [3] (setting [9]) were 46 nM and 13 nM, respectively. Also, the figures for the IC50 in assay [1] (setting [9]) and in assay [3] (setting [9]) were 7.4 nM and 0.87 nM, respectively. Besides, in assay [2] (2D7 in combination with the labelled inhibitor, 1:1 molar ratio), the “Mean Dose Reduction (2D7)” value turned out to be 2.45 ± 0.12. Moreover, the “Mean CI” value in assay [2] (PRO 140 in combination with the labelled inhibitor, 1:1 molar ratio, Combination Index at IC50) came to 0.59 ± 0.04. Besides, in assay [2] (labelled inhibitor in combination with 2D7, 1:1 molar ratio), the “Mean Dose Reduction (Cpd in combination)” value came out at 5.73 ± 0.54.

In the case of `CCO/N=C(\c1ccc(Br)cc1)C1CCN(C2(C)CCN(C(=O)c3c(C)cc[n+]([O-])c3C)CC2)CC1` [SCH-C], in the assay with HIV-1, the “mean reductions in HIV-1 RNA levels” value is approximately 1 log10.

Consider “RANTES: CC-chemokine, natural peptide ligand of CCR5”, for which, in assay [1] (compound alone (data not shown)), the “inhibition of HIV-1 pseudovirus entry” value was “Neither TAK-779 nor RANTES mediated consistent, high-level inhibition”.

In [4], anti-CCR5 mAb 2D7 (antibody) returned an IC50, HIV-1 reporter virus pseudotyped with JRFL envelope, U87-CD4-CCR5 cells of 8.8 nM; an IC50, HIV-1 reporter virus pseudotyped with SF162 envelope, U87-CD4-CCR5 cells of 2.2 nM; an IC90, HIV-1 reporter virus pseudotyped with JRFL envelope, U87-CD4-CCR5 cells of more than 200 nM; an IC90, HIV-1 reporter virus pseudotyped with SF162 envelope, U87-CD4-CCR5 cells of 74 nM.

For “PRO 542 (CD4-IgG2) (from UniProt P01730 26-204; P01730 26-203) (Fc fusion)”, in [5], the IC50, HIV-1 reporter virus pseudotyped with SF162 envelope, U87-CD4-CCR5 cells was found to be 0.36 nM and the IC90, HIV-1 reporter virus pseudotyped with SF162 envelope, U87-CD4-CCR5 cells was found to be 7.1 nM. In assay [6], the IC50, HIV-1 reporter virus pseudotyped with JRFL envelope, U87-CD4-CCR5 cells was determined as 0.19 nM and the IC90, HIV-1 reporter virus pseudotyped with JRFL envelope, U87-CD4-CCR5 cells was found to be 2.9 nM.

`CCCCN1C(=O)[C@@H]([C@H](O)C2CCCCC2)NC(=O)C12CCN(Cc1ccc(Oc3ccc(C(=O)O)cc3)cc1)CC2` [GW873140]: in the assay on HIV-1, the “mean reductions in HIV-1 RNA levels” value was approximately 1 log10.

With `COC[C@@H](c1ccc(C(F)(F)F)cc1)N1CCN(C2(C)CCN(C(=O)c3c(C)ncnc3C)CC2)C[C@@H]1C` [SCH-D, 1-[(4,6-dimethyl-5-pyrimidinyl)carbonyl]-4-[4-[2-methoxy-1(R)-4-(trifluoromethyl)phenyl]ethyl-3(S)-methyl-1-piperazinyl]-4-methylpiperidine], in the assay on HIV-1, the “mean reductions in HIV-1 RNA levels” value is approximately 1 log10. Moreover, the IC90 in assay [1] (read-out: IC90) came out at 44 nM; in assay [3] (HIV-1 envelope SF162, 1st inhibitor alone, read-out: IC90), 14 nM. The “inhibition of PRO 140 escape mutants” value in assay [7] is listed as “efficiently inhibited”. Further, the “inhibition of PRO 140-PE binding (in words)” value in [8] was “modest levels of inhibition”. Also, the 50% inhibitory concentration (IC50) in assay [3] (HIV-1 envelope SF162, 1st inhibitor alone, read-out: IC50) amounted to 0.34 nM.

The compound anti-CD4 mAb Leu-3A (antibody) had an HIV-1 Env-mediated cell-cell fusion, RET assay with CD4 (human) of 500 ng/mL.
